Consider 7 compounds from ChEMBL document CHEMBL1201862, “PubChem BioAssay data set” (2004).

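Cells were grown in 96-well plates and exposed to each compound for 48 hours at five concentrations; endpoints were interpolated linearly between bracketing concentrations, or set to the highest concentration if not reached. The concentration for 50% growth inhibition is given as GI50.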 Activity calls are given as the source filed them. Cut-off read from the data, not from the text of the source: active = GI50 up to about 1.1 µM and inactive = higher.

Some test systems named below: HCT-116; T47D; ACHN; OVCAR-8; UACC-257; HL-60; NCI/ADR-RES; M14; UO-31; A549; HOP-62; RXF 393; SNB-75; U-251; DU-145; MDA-MB-435; RPMI-8226; MDA-N; Malme-3M; A498.
Common to all, as to assay: inhibition of tumour cell growth, NCI panel, 48 h

With `COC(=O)c1c(C)ccc2c(O)c3c(cc12)C(=O)c1c2c(cc(O)c1C3=O)C1(C)OC(C)(O2)C(O)C(N(C)C)C1O` (stereo not drawn), the GI50 in the experiment with HCT-116 is 0.643 µM (active); in the experiment on T47D, 2.76 µM (inactive); in the experiment on ACHN it was 1.23 µM (inactive); in the experiment on OVCAR-8, 0.83 µM (active); with UACC-257, 1.65 µM (inactive); in the experiment on HL-60 it was 3.98 µM (inactive). For the same compound, the GI50 in the experiment with NCI/ADR-RES is 2.79 µM (inactive); in the experiment with M14 it was 1.85 µM (inactive); in the experiment with UO-31 it was 1.87 µM (inactive); in the experiment with A549, 1.28 µM (inactive); in the experiment on HOP-62 it was 1.74 µM (inactive); in the experiment on RXF 393, 1.22 µM (inactive). The GI50 in the experiment with SNB-75 was 1.61 µM (inactive); with U-251, 0.667 µM (active); in the experiment with DU-145 it was 1.43 µM (inactive); in the experiment on MDA-MB-435, 1.62 µM (inactive); in the experiment with RPMI-8226 it was 0.946 µM (active); in the experiment with MDA-N, 1.45 µM (inactive). For the same compound, the GI50 was 2.62 µM (inactive) with Malme-3M and 1.57 µM (inactive) in the experiment with A498.
With `O=C(O)C(O)C(O)C(O)C(O)CO.[Ba+2]` (stereo not drawn), the GI50 in the experiment with HCT-116 is > 100 µM (inactive); in the experiment on T47D, > 100 µM (inactive); in the experiment on ACHN, > 100 µM (inactive); in the experiment on OVCAR-8, > 100 µM (inactive); with UACC-257, > 100 µM (inactive); in the experiment on HL-60, 3.12 µM (inactive). Also, the GI50 in the experiment on NCI/ADR-RES, with M14, with UO-31, with A549, with HOP-62 and in the experiment on RXF 393 was > 100 µM (inactive) in each case. For the same compound, the GI50 in the experiment with SNB-75, with U-251, with DU-145, with MDA-MB-435, in the experiment on RPMI-8226 and in the experiment with MDA-N was > 100 µM (inactive) each time. Besides, the GI50 in the experiment on Malme-3M and in the experiment on A498 was > 100 µM (inactive) throughout.
Consider `CN(NC(=O)/C(=C/c1ccc(O)cc1)NC(=O)c1ccccc1)c1ccnc2cc(Cl)ccc12`, for which the GI50 was 18.2 µM (inactive) with HCT-116; 20.5 µM (inactive) with T47D; 18.3 µM (inactive) in the experiment with ACHN; 17.8 µM (inactive) in the experiment on OVCAR-8; 17.8 µM (inactive) with UACC-257; 2.79 µM (inactive) in the experiment on HL-60. Moreover, the GI50 with NCI/ADR-RES is 14.5 µM (inactive); with M14, 19 µM (inactive); in the experiment with UO-31, 5.85 µM (inactive); in the experiment with A549, 19.6 µM (inactive); with HOP-62 it was 15.1 µM (inactive); with RXF 393, 14.6 µM (inactive). The GI50 with SNB-75 is 8.85 µM (inactive); with U-251 it was 14.8 µM (inactive); with DU-145 it was 21.9 µM (inactive); in the experiment on MDA-MB-435, 17.3 µM (inactive); in the experiment on RPMI-8226, 13.4 µM (inactive); in the experiment with MDA-N, 17.4 µM (inactive). Besides, the GI50 in the experiment with Malme-3M was 20 µM (inactive); with A498 it was 18.2 µM (inactive).
Turning to `O=C(NCC1Nc2ccncc2S(=O)(=O)N1)c1ccc(Br)cc1` (stereo not drawn), the GI50 in the experiment with HCT-116 is 43.9 µM (inactive); in the experiment with T47D it was > 100 µM (inactive); in the experiment on ACHN, > 100 µM (inactive); in the experiment with OVCAR-8, 35.9 µM (inactive); with UACC-257, > 100 µM (inactive); in the experiment with HL-60 it was 30.1 µM (inactive). Moreover, the GI50 in the experiment on NCI/ADR-RES is 59.8 µM (inactive); in the experiment with M14, 19.3 µM (inactive); with UO-31, 25.1 µM (inactive); in the experiment on A549, > 100 µM (inactive); in the experiment on HOP-62, > 100 µM (inactive); in the experiment with RXF 393, > 100 µM (inactive). Besides, the GI50 in the experiment with SNB-75 was 73.6 µM (inactive); in the experiment on U-251, 30.4 µM (inactive); in the experiment on DU-145 it was 77.6 µM (inactive); in the experiment with MDA-MB-435 it was 19.6 µM (inactive); in the experiment with RPMI-8226, 32.5 µM (inactive); in the experiment with MDA-N, 23.7 µM (inactive). Also, the GI50 with Malme-3M was 28.8 µM (inactive); with A498, > 100 µM (inactive).
As for `C=C=C(CC1CCCCC1=O)S(=O)(=O)c1ccccc1` (stereo not drawn), the GI50 was 2.65 µM (inactive) in the experiment on HCT-116; > 10 µM (inactive) in the experiment with T47D; > 10 µM (inactive) in the experiment with ACHN; > 9.46 µM (inactive) in the experiment with OVCAR-8; > 10 µM (inactive) in the experiment on UACC-257; 1.52 µM (inactive) in the experiment on HL-60. The GI50 in the experiment on NCI/ADR-RES is > 10 µM (inactive); in the experiment on M14, 3.12 µM (inactive); in the experiment on UO-31, > 10 µM (inactive); in the experiment with A549 it was > 10 µM (inactive); in the experiment with HOP-62 it was > 10 µM (inactive); in the experiment with RXF 393 it was > 9.62 µM (inactive). Further, the GI50 in the experiment with SNB-75 was > 6.04 µM (inactive); with U-251 it was > 10 µM (inactive); in the experiment with DU-145 it was > 7.13 µM (inactive); in the experiment on MDA-MB-435, > 7.23 µM (inactive); in the experiment on RPMI-8226, 1.04 µM (active); with MDA-N, > 7.13 µM (inactive). The GI50 with Malme-3M and in the experiment on A498 was > 10 µM (inactive) throughout.
Turning to `Nc1nc(Nc2ccc(Cl)cc2)sc1C(=O)c1c[nH]c2ccccc12`, the GI50 in the experiment on HCT-116 was 11.1 µM (inactive); in the experiment with T47D, 8.32 µM (inactive); with ACHN, 12.4 µM (inactive); in the experiment with UACC-257, 7.26 µM (inactive); in the experiment with HL-60, 15.7 µM (inactive); with NCI/ADR-RES it was 12.4 µM (inactive). Besides, the GI50 is 11.2 µM (inactive) in the experiment with M14; 15.4 µM (inactive) with UO-31; 13.6 µM (inactive) with A549; 21 µM (inactive) with HOP-62; 9.27 µM (inactive) with RXF 393; 5.66 µM (inactive) with SNB-75. Also, the GI50 was 12.2 µM (inactive) with U-251; 14.2 µM (inactive) in the experiment with DU-145; 12.9 µM (inactive) in the experiment on MDA-MB-435; 11.6 µM (inactive) in the experiment with RPMI-8226; 12.4 µM (inactive) with MDA-N; 16.4 µM (inactive) in the experiment on Malme-3M. In the experiment on A498, the GI50 was 7.94 µM (inactive).
In the case of `COc1cccc(-c2cc(O)c3c(C)cc(C)nc3n2)c1`, the GI50 with HCT-116 was 0.395 µM (active); in the experiment on T47D it was 14.5 µM (inactive); in the experiment with ACHN, 0.555 µM (active); with OVCAR-8 it was 0.944 µM (active); with HL-60, 0.182 µM (active); with NCI/ADR-RES it was 1.13 µM (inactive). In addition, the GI50 was 0.406 µM (active) in the experiment on M14; 0.867 µM (active) with UO-31; 0.78 µM (active) in the experiment with A549; 1.09 µM (active) in the experiment on HOP-62; 1.29 µM (inactive) in the experiment with RXF 393; 0.167 µM (active) in the experiment with SNB-75. Besides, the GI50 in the experiment on U-251 was 0.526 µM (active); in the experiment with DU-145 it was 1.21 µM (inactive); in the experiment on MDA-MB-435, 0.0512 µM (active); with RPMI-8226 it was 0.345 µM (active); in the experiment with MDA-N, 0.067 µM (active); with Malme-3M, 0.252 µM (active). In addition, the GI50 in the experiment on A498 is 0.419 µM (active).
